Measured values as given in patent publication US9670227B2, “Thienopyrimidine derivatives, a process for their preparation and pharmaceutical compositions containing them” (LES LABORATOIRES SERVIER, priority 2013, dated 2017).
Where two headings read alike, the source gives them in different places.

Tests used:
[1] = tested on: AMO-1 multiple myeloma cells; experiment: Quantification of the cleaved form of PARP in vivo (MSD ELISA, tumour lysates); parameters: species or system mice (SCID strain); conditions: activation factor: cleaved PARP in treated mice / control mice, AMO-1 xenograft in SCID mice, intraveinous or oral routes
Outline: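 SCID mice bearing subcutaneous AMO-1 xenografts (1.10^7 cells) dosed intravenously or orally 12 to 14 days after grafting. Cleaved PARP in tumour lysates measured by MSD ELISA. Reported as activation factor, the ratio of treated to control cleaved PARP.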

[2] = tested on: H929 multiple myeloma tumour line; experiment: In vitro cytotoxicity, Microculture Tetrazolium Assay; format: cell-based; conditions: Homo sapiens, NCI-H929, 48 h, H929 cells, 48 hours exposure, read-out: IC50 (μM) MTT H929
Experimental: The cytotoxicity studies were carried out on the H929 multiple myeloma tumour line.
The cells are distributed onto microplates and exposed to the test compounds for 48 hours.

[3] = target: Mcl-1 protein (UniProtKB primary accession number: Q07820) (Homo sapiens, UniProt Q07820); experiment: Inhibition of Mcl-1 by fluorescence polarisation, Method 1; format: binding; conditions: read-out: IC50 (M) Mcl-1 FP
Outline: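 Binding was measured as fluorescence polarisation of a fluorescein-labelled ligand (1 nM) displaced from Mcl-1 (5 nM), both final. Compounds ran as 11-point series with final DMSO at 5%.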

[4] = fluorescence polarisation, Method 1, or Method 2
[5] = fluorescence polarisation test, Method 1, or Method 2 where the value is underlined (underlining not visible)

Sequence of Mcl-1 protein (Q07820 whole entry): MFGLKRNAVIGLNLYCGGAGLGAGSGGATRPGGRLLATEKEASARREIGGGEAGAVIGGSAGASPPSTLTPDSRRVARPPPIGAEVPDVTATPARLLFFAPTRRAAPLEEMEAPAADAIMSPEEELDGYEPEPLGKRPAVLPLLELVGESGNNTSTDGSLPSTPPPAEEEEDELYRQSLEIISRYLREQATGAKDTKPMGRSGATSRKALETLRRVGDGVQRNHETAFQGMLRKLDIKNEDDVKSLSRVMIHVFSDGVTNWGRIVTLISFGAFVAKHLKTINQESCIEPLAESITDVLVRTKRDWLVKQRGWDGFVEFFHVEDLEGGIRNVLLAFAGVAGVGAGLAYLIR

IC50 [3, 4] [M]	IC50 [3, 5] [M]	Structure (SMILES)	PARP fold [1] [fold]	IC50 ([2]; MTT) [µM]	IC50 ([2]; cell viability) [µM]
9.48e-10	–	COc1ccccc1-c1nccc(COc2ccccc2CC(Oc2ncnc3sc(-c4ccc(F)cc4)c(-c4ccc(OCCN5CCN(C)CC5)c(Cl)c4Cl)c23)C(=O)O)n1 [Example 743, (2R)-2-{[(5Sa)-5-{2,3-dichloro-4-[2-(4-methylpiperazin-1-yl)ethoxy]phenyl}-6-(4-fluorophenyl)thieno[2,3-d]pyrimidin-4-yl]oxy}-3-(2-{[2-(2-methoxyphenyl)pyrimidin-4-yl]methoxy}phenyl)propanoic acid]	147.3	0.005	–
1.33e-09	–	Cc1c(-c2c(-c3ccc(F)cc3)sc3ncnc(OC(Cc4ccccc4OCc4ccnn4C(C)(C)C)C(=O)O)c23)ccc(OCCN(C)C)c1Cl [Example 750, (2R)-3-{2-[(1-tert-butyl-1H-pyrazol-5-yl)methoxy]phenyl}-2-{[(5Sa)-5-{3-chloro-4-[2-(dimethylamino)ethoxy]-2-methylphenyl}-6-(4-fluorophenyl)thieno[2,3-d]pyrimidin-4-yl]oxy}propanoic acid]	181.6	0.035	–
3.95e-09	–	Cc1c(-c2c(-c3ccc(F)cc3)sc3ncnc(OC(Cc4ccccc4OCc4ccnc(-c5ccccc5F)n4)C(=O)O)c23)ccc(OCCN(C)C)c1Cl [Example 757, (2R)-2-{[(5Sa)-5-{3-chloro-4-[2-(dimethylamino)ethoxy]-2-methylphenyl}-6-(4-fluorophenyl)thieno[2,3-d]pyrimidin-4-yl]oxy}-3-(2-{[2-(2-fluorophenyl)pyrimidin-4-yl]methoxy}phenyl)propanoic acid]	135.6	0.013	–
1.88e-09	–	COc1ccccc1-c1nccc(COc2ccccc2CC(Oc2ncnc3sc(-c4ccc(OCc5ccccc5)cc4)c(-c4ccc(OCCN5CCN(C)CC5)c(Cl)c4C)c23)C(=O)O)n1 [Example 762, (2R)-2-[(6-[4-(benzyloxy)phenyl]-(5Sa)-5-{3-chloro-2-methyl-4-[2-(4-methylpiperazin-1-yl)ethoxy]phenyl}thieno[2,3-d]pyrimidin-4-yl)oxy]-3-(2-{[2-(2-methoxyphenyl)pyrimidin-4-yl]methoxy}phenyl)propanoic acid]	136.9	0.014	–
9.48e-10	–	COc1ccccc1-c1nccc(COc2ccccc2CC(Oc2ncnc3sc(-c4ccc(OCc5ccncc5)cc4)c(-c4ccc(OCCN5CCN(C)CC5)c(Cl)c4C)c23)C(=O)O)n1 [Example 774, (2R)-2-[((5Sa)-5-{3-chloro-2-methyl-4-[2-(4-methylpiperazin-1-yl)ethoxy]phenyl}-6-[4-(pyridin-4-ylmethoxy)phenyl]thieno[2,3-d]pyrimidin-4-yl)oxy]-3-(2-{[2-(2-methoxyphenyl)pyrimidin-4-yl]methoxy}phenyl)propanoic acid]	104.8	0.009	–
9.48e-10	–	COc1ccccc1-c1nccc(COc2ccccc2CC(Oc2ncnc3sc(C#CCCc4ccccc4)c(-c4ccc(OCCN5CCN(C)CC5)c(Cl)c4C)c23)C(=O)O)n1 [Example 781, (2R)-2-{[(5Sa)-5-{3-chloro-2-methyl-4-[2-(4-methylpiperazin-1-yl)ethoxy]phenyl}-6-(4-phenylbut-1-yn-1-yl)thieno[2,3-d]pyrimidin-4-yl]oxy}-3-(2-{[2-(2-methoxyphenyl)pyrimidin-4-yl]methoxy}phenyl)propanoic acid]	113.3	0.033	–
4.71e-07	–	COC(=O)C(Cc1ccccc1OCc1ccnc(-c2ccccc2OC)n1)Oc1ncnc2sc(-c3ccc(F)cc3)c(-c3ccc(OCCN4CCN(C)CC4)c(Cl)c3C)c12 [Example 787, methyl (2R)-2-{[(5Sa)-5-{3-chloro-2-methyl-4-[2-(4-methylpiperazin-1-yl)ethoxy]phenyl}-6-(4-fluorophenyl)thieno[2,3-d]pyrimidin-4-yl]oxy}-3-(2-{[2-(2-methoxyphenyl)pyrimidin-4-yl]methoxy}phenyl)propanoate]	131.5	0.245	–
6.74e-07	–	COc1ccccc1-c1nccc(COc2ccccc2CC(Oc2ncnc3sc(-c4ccc(F)cc4)c(-c4ccc(OCCN5CCN(C)CC5)c(Cl)c4C)c23)C(=O)OC(C)C)n1 [Example 788, propan-2-yl (2R)-2-{[(5Sa)-5-{3-chloro-2-methyl-4-[2-(4-methylpiperazin-1-yl)ethoxy]phenyl}-6-(4-fluorophenyl)thieno[2,3-d]pyrimidin-4-yl]oxy}-3-(2-{[2-(2-methoxyphenyl)pyrimidin-4-yl]methoxy}phenyl)propanoate]	144.8	0.494	–
3.82e-07	–	COCCOC(=O)C(Cc1ccccc1OCc1ccnc(-c2ccccc2OC)n1)Oc1ncnc2sc(-c3ccc(F)cc3)c(-c3ccc(OCCN4CCN(C)CC4)c(Cl)c3C)c12 [Example 789, 2-methoxyethyl (2R)-2-{[(5Sa)-5-{3-chloro-2-methyl-4-[2-(4-methylpiperazin-1-yl)ethoxy]phenyl}-6-(4-fluorophenyl)thieno[2,3-d]pyrimidin-4-yl]oxy}-3-(2-{[2-(2-methoxyphenyl)pyrimidin-4-yl]methoxy}phenyl)propanoate]	135.2	0.206	–
–	1.72e-07	COc1ccccc1-c1nccc(COc2ccccc2CC(Oc2ncnc3sc(-c4ccc(F)cc4)c(-c4ccc(OCCN5CCN(C)CC5)c(Cl)c4C)c23)C(=O)OCC(F)(F)F)n1 [Example 808, 2,2,2-trifluoroethyl (2R)-2-{[(5Sa)-5-{3-chloro-2-methyl-4-[2-(4-methylpiperazin-1-yl)ethoxy]phenyl}-6-(4-fluorophenyl)thieno[2,3-d]pyrimidin-4-yl]oxy}-3-(2-{[2-(2-methoxyphenyl)pyrimidin-4-yl]methoxy}phenyl)propanoate]	155	–	0.01
–	4.2e-07	COc1ccccc1-c1nccc(COc2ccccc2CC(Oc2ncnc3sc(-c4ccc(F)cc4)c(-c4ccc(OCCN5CCN(C)CC5)c(Cl)c4C)c23)C(=O)OCOC(=O)C(C)(C)C)n1 [Example 810, {[(2R)-2-{[(5Sa)-5-{3-chloro-2-methyl-4-[2-(4-methylpiperazin-1-yl)ethoxy]phenyl}-6-(4-fluorophenyl)thieno[2,3-d]pyrimidin-4-yl]oxy}-3-(2-{[2-(2-methoxyphenyl)pyrimidin-4-yl]methoxy}phenyl)propanoyl]oxy}methyl 2,2-dimethylpropanoate]	122.4	–	0.001
–	8.55e-09	COc1ccccc1-c1nccc(COc2ccccc2CC(Oc2ncnc3sc(-c4ccc(F)cc4)c(-c4ccc(OCCN5CCN(C)CC5)c(Cl)c4C)c23)C(=O)OCc2oc(=O)oc2C)n1 [Example 811, (5-methyl-2-oxo-1,3-dioxol-4-yl)methyl (2R)-2-{[(5Sa)-5-{3-chloro-2-methyl-4-[2-(4-methylpiperazin-1-yl)ethoxy]phenyl}-6-(4-fluorophenyl)thieno[2,3-d]pyrimidin-4-yl]oxy}-3-(2-{[2-(2-methoxyphenyl)pyrimidin-4-yl]methoxy}phenyl)propanoate]	117.6	–	0.002
–	6.51e-07	COc1ccccc1-c1nccc(COc2ccccc2CC(Oc2ncnc3sc(-c4ccc(F)cc4)c(-c4ccc(OCCN5CCN(C)CC5)c(Cl)c4C)c23)C(=O)OCC(=O)N(C)C)n1 [Example 812, 2-(dimethylamino)-2-oxoethyl (2R)-2-{[(5Sa)-5-{3-chloro-2-methyl-4-[2-(4-methylpiperazin-1-yl)ethoxy]phenyl}-6-(4-fluorophenyl)thieno[2,3-d]pyrimidin-4-yl]oxy}-3-(2-{[2-(2-methoxyphenyl)pyrimidin-4-yl]methoxy}phenyl)propanoate]	136	–	0.103
–	6.39e-07	COCCOCCOC(=O)C(Cc1ccccc1OCc1ccnc(-c2ccccc2OC)n1)Oc1ncnc2sc(-c3ccc(F)cc3)c(-c3ccc(OCCN4CCN(C)CC4)c(Cl)c3C)c12 [Example 814, 2-(2-methoxyethoxy)ethyl (2R)-2-{[(5Sa)-5-{3-chloro-2-methyl-4-[2-(4-methylpiperazin-1-yl)ethoxy]phenyl}-6-(4-fluorophenyl)thieno[2,3-d]pyrimidin-4-yl]oxy}-3-(2-{[2-(2-methoxyphenyl)pyrimidin-4-yl]methoxy}phenyl)propanoate]	118.5	–	0.314
